Results published in US20150105383A1, “HDAC Inhibitors, Alone Or In Combination With PI3K Inhibitors, For Treating Non-Hodgkin's Lymphoma” (Acetylon Pharmaceuticals, Inc., priority 2013, published 2015).
“Also recorded” adds a separate entry of the source.

Legend:
[1] = test system: Mino, Jeko1, Granta-519, U2932 and SUDHL16 cells; test: MTS cell viability, dose-matrix combination of HDAC6 inhibitor and PI3K inhibitor (Fa-CI, Chou-Talalay); type: cell-based, human; settings: HDAC6 inhibitor in combination with a PI3K inhibitor (GDC-0941 or GS-1101/CAL-101), 48 hr
Procedure: Human lymphoma cell lines were selected that represented the most common subtypes of NHL. For Mantle Cell Lymphoma (MCL) Mino, Jeko1, and Granta-519 cells were utilized, while U2932 and SUDHL16 cells represented the activated B cell (ABC) and germinal center (GC) subtypes of diffuse large B cell lymphoma (DLBCL), respectively. Briefly, cells were seeded in 384-well plates and treated in quadruplicate in a dose-matrix format with an HDAC6 inhibitor (Compound A, Compound B, or Compound C) in combination with a PI3K inhibitor (GDC-0941 or GS-1101/CAL-101). After incubating these cells for 48 hr, total cell viability was assessed via an MTS assay (Aqueous One, Promega). The fraction affected (Fa) was subsequently determined for each dose combination and the combination index (CI) was assessed using the method of Chou-Talay.

[2] = test system: Jeko1, Mino or Granta-519 lymphoma cells; test: Cell cycle distribution by flow cytometry, statements for all cell lines together; type: cell-based, human; settings: Compound A or B 2 μM and/or PI3K inhibitor, 4 days
Procedure: The relative fraction of cells in each stage of the cell cycle (G0/G1, S, and G2/M), as well as the fraction of dead cells (Sub G1) was then estimated. Cells were treated with DMSO, Compound A or B (2 μM), GDC-0941 (0.075-0.5 μM), or the combination of Compound A or B (2 μM) with GDC-0941 (0.075-0.5 μM) on cell cycle inhibition. Alternatively, cells were treated with DMSO, Compound A or B (2 μM), CAL-101 (1-2 μM), or the combination of Compound A or B (2 μM) with CAL-101 (1-2 μM) before measuring effects on cell cycle inhibition.

[3] = test system: Jeko1 or Mino lymphoma cells; test: Apoptosis by flow cytometry, statements for the cell lines together; type: cell-based, human; settings: 4 days; for cellular apoptosis: Compound A or B plus a PI3Ki, lymphoma cells; for apoptosis / percentage of apoptotic cells: Jeko1 or Mino, relative to control cells (DMSO), Compound A or B 2-3 μM, GDC-0941 0.075-2 μM, CAL-101 2 μM
Procedure: Jeko1 (FIG. 4A and FIG. 4B) or Mino (FIG. 4C) lymphoma cells were exposed to drug for 4 days, and apoptosis was assessed by flow cytometry by measuring Annexin V binding and cellular permeability to propidium iodide. The relative fraction of cells that were live, in early apoptosis, in late apoptosis, or dead was then estimated. The cells were treated with DMSO, Compound A or B (2-3 μM), GDC-0941 (0.075-2 μM), or the combination of Compound A or B (2-3 μM) with GDC-0941 (0.075-2 μM) on the induction of apoptosis. Alternatively, cells were treated with DMSO, Compound A or B (2 μM), CAL-101 (2 μM), or the combination of Compound A or B (2 μM) with CAL-101 (2 μM) before measuring induction of apoptosis.

[4] = relative to start of dosing; GDC-0941 100 mg/kg PO QD, Compound A 30 mg/kg IP QD; five days per week for 3 cycles
Procedure: Percent body weight change was determined relative to the start of dosing, and the mean change±SD was plotted. All treatments were dosed five days per week for 3 cycles.

Structure (SMILES)	synergy in decreasing lymphoma cell viability [1]	cell cycle progression [2]	cellular apoptosis [3]	apoptosis / percentage of apoptotic cells [3]	body weight change [4]
O=C(CCCCCCNC(=O)c1cnc(N(c2ccccc2)c2ccccc2)nc1)NO [Compound A, 2-(diphenylamino)-N-(7-(hydroxyamino)-7-oxoheptyl) pyrimidine-5-carboxamide]	synergistic decreases in lymphoma cell viability	decreased cell cycle progression	synergistic increases in cellular apoptosis	small increase in apoptosis relative to control cells	–
O=C(CCCCCCNC(=O)c1cnc(N(c2ccccc2)c2ccccc2Cl)nc1)NO [Compound B, 2-((2-chlorophenyl)(phenyl)amino)-N-(7-(hydroxyamino)-7-oxoheptyl)pyrimidine-5-carboxamide]	synergistic decreases in lymphoma cell viability	decreased cell cycle progression	synergistic increases in cellular apoptosis	small increase in apoptosis relative to control cells	–
O=C(NO)c1cnc(NC2(c3cccc(F)c3)CCCCC2)nc1 [Compound C, 2-((1-(3-fluorophenyl)cyclohexyl)amino)-N-hydroxypyrimidine-5-carboxamide]	synergistic decreases in lymphoma cell viability	–	–	–	–
CS(=O)(=O)N1CCN(Cc2cc3nc(-c4cccc5[nH]ncc45)nc(N4CCOCC4)c3s2)CC1 [GDC-0941, 2-(1H-indazol-4-yl)-6-(4-methanesulfonyl-piperazin-1-ylmehtyl)-4-morpholin-4-yl-thienol[3,2-d]pyrimidine]	–	–	–	did not result in increased cell death	complete recovery after minimal body weight loss; also recorded: low level body weight loss was recovered by the end of the treatment period
